Test system: MIA PaCa-2 cells
Test: DNA microarray analysis (Affymetrix Human PrimeView);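 on Mean (MiaPaca-2 * PA): Log2-transformed RMA normalized probe set signal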
Assay type: cell-based
[1] = gene HNRNPM, probeset 11761514_at
[2] = gene IER5, probeset 11716629_at
[3] = gene IRAK2, probeset 11733240_at
[4] = gene LIF, probeset 11758619_s_at
[5] = gene LTB, probeset 11739657_a_at
[6] = gene MALAT1, probeset 11745723_a_at
[7] = gene MARS2, probeset 11729710_a_at
[8] = gene MARS2, probeset 11750890_a_at
[9] = gene MCL1, probeset 11715484_a_at
[10] = gene NAV3, probeset 11723147_a_at
[11] = gene NFKBIA, probeset 11745878_x_at
[12] = gene NFKBIA, probeset 11757894_x_at
[13] = gene PHLDA2, probeset 11744005_at
[14] = gene PLEKHG6, probeset 11733595_x_at
[15] = gene RPS4X, probeset 11761933_at
[16] = gene SAT1, probeset 11743036_s_at
[17] = gene SDC4, probeset 11717639_x_at
[18] = gene SDC4, probeset 11749921_a_at
[19] = gene SH3BP1, probeset 11728063_x_at
[20] = gene SLC3A2, probeset 11733071_a_at
[21] = gene SLC3A2, probeset 11741149_x_at
[22] = gene SLC3A2, probeset 11746697_a_at
[23] = gene SLC3A2, probeset 11753434_a_at
[24] = gene SLC16A6, probeset 11735090_s_at
[25] = gene SLC16A6, probeset 11754629_s_at
[26] = gene SMAGP, probeset 11719864_a_at

SMILES: C=C(CC[C@@H](C(=O)O)[C@H]1[C@H](O)C[C@@]2(C)C3=C(CC[C@]12C)[C@@]1(C)CC[C@H](OC(C)=O)C(C)(C)[C@@H]1CC3)C(C)C [PA, Pachymic acid]
- Fold-Change (MiaPaca-2 * PA vs. MiaPaca-2 * control) [1]: 1.65
- Mean (MiaPaca-2 * PA) [1]: 9.69
- Fold-Change (MiaPaca-2 * PA vs. MiaPaca-2 * control) (gene HNRNPM, probeset 11761516_x_at, MiaPaca-2): 1.50
- Mean (MiaPaca-2 * PA) (gene HNRNPM, probeset 11761516_x_at, MiaPaca-2, PA-treated): 10.58
- Fold-Change (MiaPaca-2 * PA vs. MiaPaca-2 * control) (gene HOOK1, probeset 11750347_a_at, MiaPaca-2): 1.50
- Mean (MiaPaca-2 * PA) (gene HOOK1, probeset 11750347_a_at, MiaPaca-2, PA-treated): 3.97
- Fold-Change (MiaPaca-2 * PA vs. MiaPaca-2 * control) [2]: 1.60
- Mean (MiaPaca-2 * PA) [2]: 7.72
- Fold-Change (MiaPaca-2 * PA vs. MiaPaca-2 * control) (gene IL12A, probeset 11756769_a_at, MiaPaca-2): 1.50
- Mean (MiaPaca-2 * PA) (gene IL12A, probeset 11756769_a_at, MiaPaca-2, PA-treated): 5.04
- Fold-Change (MiaPaca-2 * PA vs. MiaPaca-2 * control) [3]: 1.59
- Mean (MiaPaca-2 * PA) [3]: 6.52
- Fold-Change (MiaPaca-2 * PA vs. MiaPaca-2 * control) (gene KLHL29, probeset 11745365_at, MiaPaca-2): 1.51
- Mean (MiaPaca-2 * PA) (gene KLHL29, probeset 11745365_at, MiaPaca-2, PA-treated): 5.04
- Fold-Change (MiaPaca-2 * PA vs. MiaPaca-2 * control) (gene LIF, probeset 11726498_at): 1.55
- Mean (MiaPaca-2 * PA) (gene LIF, probeset 11726498_at): 7.20
- Fold-Change (MiaPaca-2 * PA vs. MiaPaca-2 * control) [4]: 1.55
- Mean (MiaPaca-2 * PA) [4]: 9.50
- Fold-Change (MiaPaca-2 * PA vs. MiaPaca-2 * control) (gene LRP8, probeset 11741376_a_at, MiaPaca-2): 1.53
- Mean (MiaPaca-2 * PA) (gene LRP8, probeset 11741376_a_at, MiaPaca-2, PA-treated): 7.95
- Fold-Change (MiaPaca-2 * PA vs. MiaPaca-2 * control) [5]: 1.54
- Mean (MiaPaca-2 * PA) [5]: 6.97
- Fold-Change (MiaPaca-2 * PA vs. MiaPaca-2 * control) (gene MAFF, probeset 11726611_x_at, MiaPaca-2): 1.50
- Mean (MiaPaca-2 * PA) (gene MAFF, probeset 11726611_x_at, MiaPaca-2, PA-treated): 6.99
- Fold-Change (MiaPaca-2 * PA vs. MiaPaca-2 * control) [6]: 1.55
- Mean (MiaPaca-2 * PA) [6]: 9.40
- Fold-Change (MiaPaca-2 * PA vs. MiaPaca-2 * control) [7]: 1.55
- Mean (MiaPaca-2 * PA) [7]: 6.32
- Fold-Change (MiaPaca-2 * PA vs. MiaPaca-2 * control) [8]: 1.61
- Mean (MiaPaca-2 * PA) [8]: 6.51
- Fold-Change (MiaPaca-2 * PA vs. MiaPaca-2 * control) [9]: 1.60
- Mean (MiaPaca-2 * PA) [9]: 8.79
- Fold-Change (MiaPaca-2 * PA vs. MiaPaca-2 * control) (gene MMP1, probeset 11741897_a_at, MiaPaca-2): 1.52
- Mean (MiaPaca-2 * PA) (gene MMP1, probeset 11741897_a_at, MiaPaca-2, PA-treated): 5.59
- Fold-Change (MiaPaca-2 * PA vs. MiaPaca-2 * control) [10]: 1.54
- Mean (MiaPaca-2 * PA) [10]: 5.19
- Fold-Change (MiaPaca-2 * PA vs. MiaPaca-2 * control) (gene NFKBIA, probeset 11744000_a_at): 1.65
- Fold-Change (MiaPaca-2 * PA vs. MiaPaca-2 * control) [11]: 1.67
- Mean (MiaPaca-2 * PA) [11]: 11.53
- Fold-Change (MiaPaca-2 * PA vs. MiaPaca-2 * control) [12]: 1.56
- Mean (MiaPaca-2 * PA) [12]: 11.80
- Fold-Change (MiaPaca-2 * PA vs. MiaPaca-2 * control) (gene PABPC1L, probeset 11721609_a_at, MiaPaca-2): 1.51
- Mean (MiaPaca-2 * PA) (gene PABPC1L, probeset 11721609_a_at, MiaPaca-2, PA-treated): 9.20
- Fold-Change (MiaPaca-2 * PA vs. MiaPaca-2 * control) [13]: 1.57
- Mean (MiaPaca-2 * PA) [13]: 8.15
- Fold-Change (MiaPaca-2 * PA vs. MiaPaca-2 * control) (gene PHLDB2, probeset 11737041_a_at, MiaPaca-2): 1.50
- Mean (MiaPaca-2 * PA) (gene PHLDB2, probeset 11737041_a_at, MiaPaca-2, PA-treated): 11.63
- Fold-Change (MiaPaca-2 * PA vs. MiaPaca-2 * control) [14]: 1.55
- Mean (MiaPaca-2 * PA) [14]: 5.78
- Fold-Change (MiaPaca-2 * PA vs. MiaPaca-2 * control) (gene PNP, probeset 11718400_a_at, MiaPaca-2): 1.50
- Mean (MiaPaca-2 * PA) (gene PNP, probeset 11718400_a_at, MiaPaca-2, PA-treated): 10.30
- Fold-Change (MiaPaca-2 * PA vs. MiaPaca-2 * control) (gene RBM3, probeset 11760141_s_at, MiaPaca-2): 1.52
- Mean (MiaPaca-2 * PA) (gene RBM3, probeset 11760141_s_at, MiaPaca-2, PA-treated): 5.58
- Fold-Change (MiaPaca-2 * PA vs. MiaPaca-2 * control) (gene RCAN1, probeset 11763514_x_at, MiaPaca-2): 1.51
- Mean (MiaPaca-2 * PA) (gene RCAN1, probeset 11763514_x_at, MiaPaca-2, PA-treated): 7.84
- Fold-Change (MiaPaca-2 * PA vs. MiaPaca-2 * control) (gene RPL37A, probeset 11759821_at, MiaPaca-2): 1.51
- Mean (MiaPaca-2 * PA) (gene RPL37A, probeset 11759821_at, MiaPaca-2, PA-treated): 7.62
- Fold-Change (MiaPaca-2 * PA vs. MiaPaca-2 * control) [15]: 1.59
- Mean (MiaPaca-2 * PA) [15]: 5.23
- Fold-Change (MiaPaca-2 * PA vs. MiaPaca-2 * control) [16]: 1.56
- Mean (MiaPaca-2 * PA) [16]: 10.67
- Fold-Change (MiaPaca-2 * PA vs. MiaPaca-2 * control) [17]: 1.61
- Mean (MiaPaca-2 * PA) [17]: 10.95
- Fold-Change (MiaPaca-2 * PA vs. MiaPaca-2 * control) [18]: 1.53
- Mean (MiaPaca-2 * PA) [18]: 8.87
- Fold-Change (MiaPaca-2 * PA vs. MiaPaca-2 * control) [19]: 1.54
- Mean (MiaPaca-2 * PA) [19]: 7.60
- Fold-Change (MiaPaca-2 * PA vs. MiaPaca-2 * control) [20]: 1.55
- Mean (MiaPaca-2 * PA) [20]: 8.64
- Fold-Change (MiaPaca-2 * PA vs. MiaPaca-2 * control) [21]: 1.56
- Mean (MiaPaca-2 * PA) [21]: 8.54
- Fold-Change (MiaPaca-2 * PA vs. MiaPaca-2 * control) [22]: 1.58
- Mean (MiaPaca-2 * PA) [22]: 8.64
- Fold-Change (MiaPaca-2 * PA vs. MiaPaca-2 * control) [23]: 1.53
- Mean (MiaPaca-2 * PA) [23]: 7.98
- Fold-Change (MiaPaca-2 * PA vs. MiaPaca-2 * control) (gene SLC3A2, probeset 11754529_x_at, MiaPaca-2): 1.52
- Mean (MiaPaca-2 * PA) (gene SLC3A2, probeset 11754529_x_at, MiaPaca-2, PA-treated): 9.50
- Fold-Change (MiaPaca-2 * PA vs. MiaPaca-2 * control) [24]: 1.58
- Mean (MiaPaca-2 * PA) [24]: 5.46
- Fold-Change (MiaPaca-2 * PA vs. MiaPaca-2 * control) [25]: 1.55
- Mean (MiaPaca-2 * PA) [25]: 6.21
- Fold-Change (MiaPaca-2 * PA vs. MiaPaca-2 * control) [26]: 1.55
- Mean (MiaPaca-2 * PA) [26]: 9.61
- Fold-Change (MiaPaca-2 * PA vs. MiaPaca-2 * control) (gene SMURF2, probeset 11748382_a_at, MiaPaca-2): 1.50
- Mean (MiaPaca-2 * PA) (gene SMURF2, probeset 11748382_a_at, MiaPaca-2, PA-treated): 8.51
- Fold-Change (MiaPaca-2 * PA vs. MiaPaca-2 * control) (gene SNHG12, probeset 11753858_a_at, MiaPaca-2): 1.50
- Mean (MiaPaca-2 * PA) (gene SNHG12, probeset 11753858_a_at, MiaPaca-2, PA-treated): 10.82
- Fold-Change (MiaPaca-2 * PA vs. MiaPaca-2 * control) (gene SPRY4, probeset 11736669_s_at, MiaPaca-2): 1.50

From article PMC4411097, “Pachymic Acid Inhibits Growth and Induces Apoptosis of Pancreatic Cancer In Vitro and In Vivo by Targeting ER Stress” (PLoS ONE, 2015)
